Data reported in patent US8697739B2, “Bicyclic acetyl-CoA carboxylase inhibitors and uses thereof” (Novartis AG, priority 2010, dated 2014).

Target: T1, human acetyl-CoA carboxylase 2 (ACC2) (Homo sapiens, UniProt O00763)
T1 construct: The cDNA encoding amino acids 144 to 2458 of human acetyl-CoA carboxylase 2; made in house; host or cells: Sf9 insect cells (baculovirus, pFastBac1)
Experiment: Acetyl-CoA carboxylase enzyme assay (malonyl-CoA formation by LC/MS/MS)
Format: biochemical
Conditions: recombinant human ACC2 (aa 144-2458); read-out: IC50 ACC2
Outline: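 Malonyl-CoA formation was read by LC/MS/MS MRM against a [13C3]-malonyl-CoA internal standard, after acetic acid quench. The enzyme was baculovirus/Sf9-expressed human ACC2 residues 144–2458, given 15 minutes room-temperature compound preincubation in HEPES pH 7.5 buffer with MgCl2, citrate and DTT. Substrate solution held 50 μM acetyl-CoA, 120 μM ATP and 2 mM KHCO3.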

T1 sequence (O00763 144-2458): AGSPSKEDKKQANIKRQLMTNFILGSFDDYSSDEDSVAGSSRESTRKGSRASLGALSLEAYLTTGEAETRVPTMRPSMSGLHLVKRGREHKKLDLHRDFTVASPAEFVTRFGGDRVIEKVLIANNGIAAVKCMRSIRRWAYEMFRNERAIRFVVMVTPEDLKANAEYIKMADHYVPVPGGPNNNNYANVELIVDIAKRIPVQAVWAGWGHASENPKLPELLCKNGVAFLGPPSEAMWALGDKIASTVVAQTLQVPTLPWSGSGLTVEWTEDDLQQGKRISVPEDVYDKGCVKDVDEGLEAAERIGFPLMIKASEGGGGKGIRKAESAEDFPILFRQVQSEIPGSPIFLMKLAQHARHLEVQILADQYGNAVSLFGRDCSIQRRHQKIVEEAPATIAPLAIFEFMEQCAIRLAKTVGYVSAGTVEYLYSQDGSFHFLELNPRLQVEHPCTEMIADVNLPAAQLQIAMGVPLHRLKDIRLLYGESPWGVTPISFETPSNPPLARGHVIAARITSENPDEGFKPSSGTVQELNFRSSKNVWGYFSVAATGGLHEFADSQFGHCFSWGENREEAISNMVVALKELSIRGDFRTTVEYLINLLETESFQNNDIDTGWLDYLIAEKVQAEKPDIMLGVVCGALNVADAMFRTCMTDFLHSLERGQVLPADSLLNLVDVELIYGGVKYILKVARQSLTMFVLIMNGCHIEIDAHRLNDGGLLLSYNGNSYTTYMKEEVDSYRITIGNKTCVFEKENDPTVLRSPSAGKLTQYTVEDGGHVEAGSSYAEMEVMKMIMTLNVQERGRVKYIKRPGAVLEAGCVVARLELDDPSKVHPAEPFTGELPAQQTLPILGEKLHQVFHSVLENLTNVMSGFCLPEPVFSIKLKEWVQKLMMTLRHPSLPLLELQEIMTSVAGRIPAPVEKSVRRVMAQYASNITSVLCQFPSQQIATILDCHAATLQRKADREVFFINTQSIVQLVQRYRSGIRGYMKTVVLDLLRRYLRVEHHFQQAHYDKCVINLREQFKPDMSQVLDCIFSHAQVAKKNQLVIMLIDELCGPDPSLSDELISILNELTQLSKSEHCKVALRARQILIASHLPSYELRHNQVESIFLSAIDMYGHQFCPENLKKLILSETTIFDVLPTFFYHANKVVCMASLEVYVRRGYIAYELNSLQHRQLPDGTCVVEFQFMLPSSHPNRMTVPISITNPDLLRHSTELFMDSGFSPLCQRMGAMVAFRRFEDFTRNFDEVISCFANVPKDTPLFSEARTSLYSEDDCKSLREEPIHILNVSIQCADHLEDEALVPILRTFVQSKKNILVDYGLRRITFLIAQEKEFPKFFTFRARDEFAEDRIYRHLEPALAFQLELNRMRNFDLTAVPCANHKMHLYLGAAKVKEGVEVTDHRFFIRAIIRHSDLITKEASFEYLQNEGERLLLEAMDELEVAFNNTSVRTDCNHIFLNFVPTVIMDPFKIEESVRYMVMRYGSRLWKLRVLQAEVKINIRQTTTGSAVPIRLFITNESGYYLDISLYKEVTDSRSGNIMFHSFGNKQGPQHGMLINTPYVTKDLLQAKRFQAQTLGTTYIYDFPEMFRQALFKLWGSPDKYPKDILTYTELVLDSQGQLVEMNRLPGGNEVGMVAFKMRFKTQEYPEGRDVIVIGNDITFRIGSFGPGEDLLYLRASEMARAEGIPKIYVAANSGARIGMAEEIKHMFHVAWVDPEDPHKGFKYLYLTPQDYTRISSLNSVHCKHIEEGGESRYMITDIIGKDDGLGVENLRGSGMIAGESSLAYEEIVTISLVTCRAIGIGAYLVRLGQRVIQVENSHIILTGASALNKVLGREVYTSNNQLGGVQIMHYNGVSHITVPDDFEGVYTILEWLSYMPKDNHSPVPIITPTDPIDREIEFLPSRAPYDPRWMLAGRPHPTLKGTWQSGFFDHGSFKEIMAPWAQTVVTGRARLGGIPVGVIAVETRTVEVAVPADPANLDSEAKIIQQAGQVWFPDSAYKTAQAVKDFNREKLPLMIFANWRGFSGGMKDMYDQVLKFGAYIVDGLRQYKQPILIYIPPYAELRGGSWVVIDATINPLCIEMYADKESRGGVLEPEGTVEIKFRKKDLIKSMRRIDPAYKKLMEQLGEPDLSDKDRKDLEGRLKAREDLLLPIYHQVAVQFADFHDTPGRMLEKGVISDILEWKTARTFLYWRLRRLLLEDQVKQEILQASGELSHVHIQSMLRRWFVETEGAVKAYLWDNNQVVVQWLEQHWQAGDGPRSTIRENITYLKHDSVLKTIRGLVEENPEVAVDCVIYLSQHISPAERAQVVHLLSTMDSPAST

| Structure (SMILES) | IC50 |
| --- | --- |
| Cn1c(-c2ccc(CO)cc2)cc2ccc(S(=O)(=O)N[C@H]3CC[C@H](C(=O)N4CCOCC4)CC3)cc21 [Example 336, 2-(4-(hydroxymethyl)phenyl)-1-methyl-N-((1r,4r)-4-(morpholine-4-carbonyl)cyclohexyl)-1H-indole-6-sulfonamide] | 35 nM |
| Cn1c(-c2ccc(CO)cc2)cc2ccc(S(=O)(=O)N[C@H]3CC[C@H](C(=O)N4CCN[C@H](C(F)(F)F)C4)CC3)cc21 [Example 337, 2-(4-(hydroxymethyl)phenyl)-1-methyl-N-((1S,4r)-4-((S)-3-(trifluoromethyl)piperazine-1-carbonyl)cyclohexyl)-1H-indole-6-sulfonamide] | 20 nM |
| Cn1c(-c2ccc(CO)cc2)cc2ccc(S(=O)(=O)N[C@H]3CC[C@H](C(=O)N4CCN[C@@H](C(F)(F)F)C4)CC3)cc21 [Example 338, 2-(4-(hydroxymethyl)phenyl)-1-methyl-N-((1R,4r)-4-((R)-3-(trifluoromethyl)piperazine-1-carbonyl)cyclohexyl)-1H-indole-6-sulfonamide] | 15 nM |
| COCc1ccc(-c2cc3ccc(S(=O)(=O)N[C@H]4CC[C@H](C(=O)N5CCNC(C(F)(F)F)C5)CC4)cc3n2C)cc1 (stereo partly shown) [Example 339, 2-(4-(methoxymethyl)phenyl)-1-methyl-N-((1r,4r)-4-(3-(trifluoromethyl)piperazine-1-carbonyl)cyclohexyl)-1H-indole-6-sulfonamide] | 30 nM |
| CCOC(=O)C1CCCCN1C(=O)[C@H]1CC[C@H](NS(=O)(=O)c2ccc3cc(-c4ccc(COC)cc4)[nH]c3c2)CC1 (stereo partly shown) [Example 340, ethyl 1-((1r,4r)-4-(2-(4-(methoxymethyl)phenyl)-1H-indole-6-sulfonamido)cyclohexanecarbonyl)piperidine-2-carboxylate] | 255 nM |
| CCOC(=O)C1CCCCN1C(=O)[C@H]1CC[C@H](NS(=O)(=O)c2ccc3cc(-c4ccc(COC)cc4)n(C)c3c2)CC1 (stereo partly shown) [Example 341, ethyl 1-((1r,4r)-4-(2-(4-(methoxymethyl)phenyl)-1-methyl-1H-indole-6-sulfonamido)cyclohexanecarbonyl)piperidine-2-carboxylate] | 240 nM |
| Cc1ccccc1-c1cc2ccc(S(=O)(=O)N[C@H]3CC[C@H](C(=O)N4CCN[C@H](C(F)(F)F)C4)CC3)cc2[nH]1 [Example 342, 2-o-tolyl-N-((1S,4r)-4-((S)-3-(trifluoromethyl)piperazine-1-carbonyl)cyclohexyl)-1H-indole-6-sulfonamide] | 135 nM |
| Cc1ccccc1-c1cc2ccc(S(=O)(=O)N[C@H]3CC[C@H](C(=O)N4CCN[C@@H](C(F)(F)F)C4)CC3)cc2[nH]1 [Example 343, 2-o-tolyl-N-((1R,4r)-4-((R)-3-(trifluoromethyl)piperazine-1-carbonyl)cyclohexyl)-1H-indole-6-sulfonamide] | 170 nM |
| Cn1c(-c2ccc(F)cc2)cc2ccc(S(=O)(=O)N[C@H]3CC[C@H](C(=O)N4CCNC(C(F)(F)F)C4)CC3)cc21 (stereo partly shown) [Example 344, 2-(4-fluorophenyl)-1-methyl-N-((1r,4r)-4-(3-(trifluoromethyl)piperazine-1-carbonyl)cyclohexyl)-1H-indole-6-sulfonamide] | 60 nM |
| CCOC(=O)C1CCCN(C(=O)[C@H]2CC[C@H](NS(=O)(=O)c3ccc4cc(-c5ccc(F)cc5)n(C)c4c3)CC2)C1 (stereo partly shown) [Example 345, ethyl 1-((1r,4r)-4-(2-(4-fluorophenyl)-1-methyl-1H-indole-6-sulfonamido)cyclohexanecarbonyl)piperidine-3-carboxylate] | 255 nM |
| Cn1c(-c2ccc(F)cc2)cc2ccc(S(=O)(=O)N[C@H]3CC[C@H](C(=O)N4CCCC(C(=O)O)C4)CC3)cc21 (stereo partly shown) [Example 346, 1-((1r,4r)-4-(2-(4-fluorophenyl)-1-methyl-1H-indole-6-sulfonamido)cyclohexanecarbonyl)piperidine-3-carboxylic acid] | 265 nM |
| Cn1c(-c2ccc(CO)cc2)cc2ccc(S(=O)(=O)N[C@H]3CC[C@H](C(=O)N4CCNC(=O)C4)CC3)cc21 [Example 347, 2-(4-(hydroxymethyl)phenyl)-1-methyl-N-((1r,4r)-4-(3-oxopiperazine-1-carbonyl)cyclohexyl)-1H-indole-6-sulfonamide] | 120 nM |
| O=C([C@H]1CC[C@H](NS(=O)(=O)c2ccc3cc(-c4ccc(F)cc4)[nH]c3c2)CC1)N1CCNC(C(F)(F)F)C1 (stereo partly shown) [Example 348, 2-(4-fluorophenyl)-N-((1r,4r)-4-(3-(trifluoromethyl)piperazine-1-carbonyl)cydohexyl)-1H-indole-6-sulfonamide] | 45 nM |
| CCN(C)C(=O)[C@H]1CC[C@H](NS(=O)(=O)c2ccc3cc(-c4ccc(CO)cc4)n(C)c3c2)CC1 [Example 349, (1r,4r)-N-ethyl-4-(2-(4-(hydroxymethyl)phenyl)-1-methyl-1H-indole-6-sulfonamido)-N-methylcyclohexanecarboxamide] | 100 nM |
| CC(C)n1c(-c2ccc(F)cc2)c(Cl)c2ccc(S(=O)(=O)N[C@H]3CC[C@H](C(=O)N4CCNC(C(F)(F)F)C4)CC3)cc21 (stereo partly shown) [Example 350, 3-chloro-2-(4-fluorophenyl)-1-isopropyl-N-((1r,4r)-4-(3-(trifluoromethyl)piperazine-1-carbonyl)cyclohexyl)-1H-indole-6-sulfonamide] | 470 nM |
| COC(=O)[C@@H](NC(=O)[C@H]1CC[C@H](NS(=O)(=O)c2ccc3cc(-c4ccccc4)n(C)c3c2)CC1)c1ccccc1 [Example 351, (S)-methyl 2-((1r,4S)-4-(1-methyl-2-phenyl-1H-indole-6-sulfonamido)cyclohexanecarboxamido)-2-phenylacetate] | 95 nM |
| Cn1c(-c2ccccc2)cc2ccc(S(=O)(=O)N[C@H]3CC[C@H](C(=O)N[C@@H](c4ccccc4)C(C)(C)O)CC3)cc21 [Example 352, (1r,4S)-N-((S)-2-hydroxy-2-methyl-1-phenylpropy1)-4-(1-methyl-2-phenyl-1H-indole-6-sulfonamido)cyclohexanecarboxamide] | < 10 nM |
| Cn1c(-c2ccccc2)cc2ccc(S(=O)(=O)N[C@H]3CC[C@H](C(=O)N[C@H](CO)c4ccccc4)CC3)cc21 [Example 353, (1r,4S)-N-((S)-2-hydroxy-1-phenylethyl)-4-(1-methyl-2-phenyl-1H-indole-6-sulfonamido)cyclohexanecarboxamide] | < 10 nM |
| Cn1c(-c2ccccc2)cc2ccc(S(=O)(=O)N[C@H]3CC[C@H](C(=O)N4CC(=O)NC[C@@H]4c4ccccc4)CC3)cc21 [Example 354, 1-methyl-N-((1S,4r)-4-((S)-5-oxo-2-phenylpiperazine-1-carbonyl)cyclohexyl)-2-phenyl-1H-indole-6-sulfonamide] | < 10 nM |
| Cn1c(C2CC2)cc2ccc(S(=O)(=O)N[C@H]3CC[C@H](C(=O)N[C@@H](c4ccccc4)C(C)(C)O)CC3)cc21 [Example 355, (1r,4S)-4-(2-cyclopropyl-1-methyl-1H-indole-6-sulfonamido)-N-((S)-2-hydroxy-2-methyl-1-phenylpropyl)cyclohexanecarboxamide] | < 10 nM |
| Cn1c(C2CC2)cc2ccc(S(=O)(=O)N[C@H]3CC[C@H](C(=O)N4CCNC(C(F)(F)F)C4)CC3)cc21 (stereo partly shown) [Example 356, 2-cyclopropyl-1-methyl-N-((1r,4r)-4-(3-(trifluoromethyl)piperazine-1-carbonyl)cyclohexyl)-1H-indole-6-sulfonamide] | 560 nM |
| COC(=O)CCc1ccc(-c2cc3ccc(S(=O)(=O)N[C@H]4CC[C@H](C(=O)N5CCCCC5)CC4)cc3n2C)cc1 [Example 357, methyl 3-(4-(1-methyl-6-(N-((1r,4r)-4-(piperidine-1-carbonyl)cyclohexyl)sulfamoyl)-1H-indol-2-yl)phenyl)propanoate] | 120 nM |
| O=C(O)CCc1ccc(-c2cc3ccc(S(=O)(=O)N[C@H]4CC[C@H](C(=O)N5CCCCC5)CC4)cc3[nH]2)cc1 [Example 358, 3-(4-(6-(N-((1r,4r)-4-(piperidine-1-carbonyl)cyclohexyl)sulfamoyl)-1H-indol-2-yl)phenyl)propanoic acid] | 35 nM |
| Cn1c(-c2ccc(CCC(=O)O)cc2)cc2ccc(S(=O)(=O)N[C@H]3CC[C@H](C(=O)N4CCCCC4)CC3)cc21 [Example 359, 3-(4-(1-methyl-6-(N-((1r,4r)-4-(piperidine-1-carbonyl)cyclohexyl)sulfamoyl)-1H-indol-2-yl)phenyl)propanoic acid] | 95 nM |
| COC(=O)CCc1ccc(-c2c(Cl)c3ccc(S(=O)(=O)N[C@H]4CC[C@H](C(=O)N5CCCCC5)CC4)cc3n2C)cc1 [Example 360, methyl 3-(4-(3-chloro-1-methyl-6-(N-((1r,4r)-4-(piperidine-1-carbonyl)cyclohexyl)sulfamoyl)-1H-indol-2-yl)phenyl)propanoate] | 35 nM |
| Cn1c(-c2ccc(CCC(=O)O)cc2)c(Cl)c2ccc(S(=O)(=O)N[C@H]3CC[C@H](C(=O)N4CCCCC4)CC3)cc21 [Example 361, 3-(4-(3-chloro-1-methyl-6-(N-((1r,4r)-4-(piperidine-1-carbonyl)cyclohexyl)sulfamoyl)-1H-indol-2-yl)phenyl)propanoic acid] | 10 nM |
| Cn1c(C2CC2)c(Cl)c2ccc(S(=O)(=O)N[C@H]3CC[C@H](C(=O)N4CCN[C@@H](C(F)(F)F)C4)CC3)cc21 [Example 362, 3-chloro-2-cyclopropyl-1-methyl-N-((1R,4r)-4-((R)-3-(trifluoromethyl)piperazine-1-carbonyl)cyclohexyl)-1H-indole-6-sulfonamide] | 75 nM |
| Cn1c(C2CC2)c(Cl)c2ccc(S(=O)(=O)N[C@H]3CC[C@H](C(=O)N4CCOCC4)CC3)cc21 [Example 363, 3-chloro-2-cyclopropyl-1-methyl-N-((1r,4r)-4-(morpholine-4-carbonyl)cyclohexyl)-1H-indole-6-sulfonamide] | 120 nM |
